Measurements reported in patent publication US20060292657A1, “Phex substrates and methods using same” (priority 2003, published 2006).
Square brackets hold non-standard residues; d marks the D form. Peptide text beside a SMILES is read from it. * marks the point of attachment. EDDnp = O=[N+]([O-])c1ccc(NCCN*)c([N+](=O)[O-])c1; 2Abz = Nc1ccccc1C(=O)O

Assays:
[1] = target: T1, membrane-bound PHEX (mPHEX) (Homo sapiens, UniProt P78562); assay: Membrane-bound PHEX activity with NEP-specific substrate and inhibitor; type: biochemical; settings: 10 μM substrate, 30 minutes
T1 construct: expressed in transfected cells; host or cells: LLC-PK1 (porcine kidney cells)
T1 sequence (P78562 whole entry): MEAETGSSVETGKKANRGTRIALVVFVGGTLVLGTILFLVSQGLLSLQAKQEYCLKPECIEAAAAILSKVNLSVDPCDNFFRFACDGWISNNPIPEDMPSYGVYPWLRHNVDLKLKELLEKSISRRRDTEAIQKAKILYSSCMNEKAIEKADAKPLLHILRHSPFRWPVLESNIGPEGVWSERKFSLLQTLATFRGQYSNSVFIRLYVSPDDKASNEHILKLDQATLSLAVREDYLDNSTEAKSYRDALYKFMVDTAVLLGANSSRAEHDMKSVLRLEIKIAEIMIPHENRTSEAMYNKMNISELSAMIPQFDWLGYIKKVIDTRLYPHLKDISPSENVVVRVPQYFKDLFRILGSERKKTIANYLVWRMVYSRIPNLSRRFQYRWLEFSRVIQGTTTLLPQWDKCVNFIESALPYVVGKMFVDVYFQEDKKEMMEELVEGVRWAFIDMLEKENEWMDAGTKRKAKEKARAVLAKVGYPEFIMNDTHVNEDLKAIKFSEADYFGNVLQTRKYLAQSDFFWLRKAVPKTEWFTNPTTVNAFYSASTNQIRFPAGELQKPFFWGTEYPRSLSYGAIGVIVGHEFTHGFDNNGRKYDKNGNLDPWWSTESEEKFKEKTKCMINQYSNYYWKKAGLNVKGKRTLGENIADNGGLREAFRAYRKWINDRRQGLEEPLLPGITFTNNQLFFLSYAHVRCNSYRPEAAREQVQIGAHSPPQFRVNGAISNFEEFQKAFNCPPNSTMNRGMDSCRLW
Procedure: (§1) FIG. 4 graphically illustrates the activity of PHEX in the presence of NEP-specific substrate and inhibitor. NEP, secPHEX and membrane-bound PHEX (mPHEX) activities were measured after 30 minutes of incubation in presence of either 10 μM Abz-DRRL-EDDnp (SEQ ID NO:8) (A) or 10 μM Abz-GFSDYK(Dnp)-OH (SEQ ID NO:3) (B). Fluorescence detection (AFU) at γem=420 nm and γex=320 nm was determined as described under the heading “Experimental Procedures” below. When present, thiorphan, a NEP-specific inhibitor, was at a concentration of 10^−6 M. Data are a compilation of three different experiments;
(§2) The activities of membrane-bound PHEX and secPHEX were also compared with the NEP-specific substrate Abz-DRRL-EDDnp (SEQ ID NO:8) (46).

secPHEX = target: T2, secPHEX (Homo sapiens, UniProt P78562); assay: secPHEX activity with NEP-specific substrate and inhibitor; type: biochemical; settings: 10 μM substrate, 30 minutes
T2 construct: pure soluble form of PHEX (secPHEX); made in house
T2 sequence (P78562 46-749 limits assumed): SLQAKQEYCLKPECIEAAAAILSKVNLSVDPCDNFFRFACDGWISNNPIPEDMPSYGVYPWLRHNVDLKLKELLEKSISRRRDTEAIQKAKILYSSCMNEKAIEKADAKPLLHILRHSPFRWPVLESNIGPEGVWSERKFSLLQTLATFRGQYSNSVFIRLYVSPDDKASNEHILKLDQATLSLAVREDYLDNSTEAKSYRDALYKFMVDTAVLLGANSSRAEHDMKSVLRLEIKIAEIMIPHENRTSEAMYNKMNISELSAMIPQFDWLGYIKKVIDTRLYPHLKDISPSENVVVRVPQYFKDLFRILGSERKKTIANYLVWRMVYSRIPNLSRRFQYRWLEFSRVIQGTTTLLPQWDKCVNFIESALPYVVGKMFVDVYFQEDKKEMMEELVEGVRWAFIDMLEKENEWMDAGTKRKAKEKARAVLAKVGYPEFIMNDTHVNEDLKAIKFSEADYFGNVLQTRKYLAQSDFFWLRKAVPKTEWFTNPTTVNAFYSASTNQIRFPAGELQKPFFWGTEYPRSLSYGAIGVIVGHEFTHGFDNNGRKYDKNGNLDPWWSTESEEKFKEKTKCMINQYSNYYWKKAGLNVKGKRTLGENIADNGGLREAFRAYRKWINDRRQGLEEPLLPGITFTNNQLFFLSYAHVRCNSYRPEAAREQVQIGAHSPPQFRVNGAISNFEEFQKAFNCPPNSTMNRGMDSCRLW
Procedure: as §1, §2

Compound: CC(C)C[C@H](NC(=O)[C@H](CCCNC(=N)N)NC(=O)[C@H](CCCNC(=N)N)NC(=O)[C@H](CC(=O)O)NC(=O)c1ccccc1N)C(=O)NCCNc1ccc([N+](=O)[O-])cc1[N+](=O)[O-] [Abz-DRRL-EDDnp] (H-[2Abz]DRRL-EDDnp)
- hydrolysis of NEP-specific substrate [1]: Neither enzyme hydrolyzed this substrate
- hydrolysis of NEP-specific substrate (secPHEX): Neither enzyme hydrolyzed this substrate
